Measurements as given in patent US20250206727A1, “HETEROCYCLIC SUBSTITUTED AROMATIC COMPOUND, PREPARATION METHOD THEREFOR, HERBICIDAL COMPOSITION AND APPLICATION” (QINGDAO KINGAGROOT CHEMICAL COMPOUND CO., LTD., priority 2022, published 2025).

What was measured:
Assay in all cases: Post-emergence test on weeds (greenhouse, spray at 2-3 leaf stage)
Format in all cases: in vivo
Set-up in all cases: key: Level 10: completely dead; Level 9: growth control rate greater than or equal to 90% and less than 100%; Level 8: growth control rate greater than or equal to 80% and less than 90%; Level 7: growth control rate greater than or equal to 70% and less than 80%; Level 6: growth control rate greater than or equal to 60% and less than 70%; Level 5: growth control rate greater than or equal to 50% and less than 60%; Level 4: growth control rate greater than or equal to 40% and less than 50%; Level 3: growth control rate greater than or equal to 30% and less than 40%; Level 2: growth control rate greater than or equal to 20% and less than 30%; Level 1: growth control rate less than 20%; Level 0: no effect
Details in all cases: 60 g a.i./ha, 3 weeks after application
Digitaria sanguinalis = test system: Digitaria sanguinalis
Outline: (§1)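 Greenhouse pot-grown weeds were sprayed by spray tower at the 2-3 leaf stage, about two weeks after sowing, with acetone/Tween 80 solutions plus 1.5 L/ha methyl oleate EC synergist at 500, 250, […], 15 and 7.5 g a.i./ha. Fresh-weight growth control was scored 0-10 after 3 weeks, triplicate averaged.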

Echinochloa crus-galli = test system: Echinochloa crus-galli
Outline: as §1

Veronica polita = test system: Veronica polita
Outline: as §1

Amaranthus retroflexus = test system: Amaranthus retroflexus
Outline: as §1

Abutilon theophrasti = test system: Abutilon theophrasti
Outline: as §1

Setaria viridis = test system: Setaria viridis
Outline: as §1

C#CCOC(=O)C1(C)ON=C(c2cc(-c3ncc(C(F)(F)F)cc3Cl)c(F)cc2Cl)O1 (stereo not drawn) [Compound 97]
10: activity level (fresh weight growth control rate), Digitaria sanguinalis (Digitaria sanguinalis) | activity level (fresh weight growth control rate), Echinochloa crus-galli (Echinochloa crus-galli) | activity level (fresh weight growth control rate), Veronica polita (Veronica polita) | activity level (fresh weight growth control rate), Amaranthus retroflexus (Amaranthus retroflexus) | activity level (fresh weight growth control rate), Abutilon theophrasti (Abutilon theophrasti) | activity level (fresh weight growth control rate), Setaria viridis (Setaria viridis)

CC1(C(=O)OCCF)ON=C(c2cc(-c3ncc(C(F)(F)F)cc3Cl)c(F)cc2Cl)O1 (stereo not drawn) [Compound 99]
10: activity level (fresh weight growth control rate), Digitaria sanguinalis (Digitaria sanguinalis) | activity level (fresh weight growth control rate), Echinochloa crus-galli (Echinochloa crus-galli) | activity level (fresh weight growth control rate), Veronica polita (Veronica polita) | activity level (fresh weight growth control rate), Amaranthus retroflexus (Amaranthus retroflexus) | activity level (fresh weight growth control rate), Abutilon theophrasti (Abutilon theophrasti) | activity level (fresh weight growth control rate), Setaria viridis (Setaria viridis)

CC1(C(=O)OCC(F)F)ON=C(c2cc(-c3ncc(C(F)(F)F)cc3Cl)c(F)cc2Cl)O1 (stereo not drawn) [Compound 101]
10: activity level (fresh weight growth control rate), Digitaria sanguinalis (Digitaria sanguinalis) | activity level (fresh weight growth control rate), Echinochloa crus-galli (Echinochloa crus-galli) | activity level (fresh weight growth control rate), Veronica polita (Veronica polita) | activity level (fresh weight growth control rate), Amaranthus retroflexus (Amaranthus retroflexus) | activity level (fresh weight growth control rate), Abutilon theophrasti (Abutilon theophrasti) | activity level (fresh weight growth control rate), Setaria viridis (Setaria viridis)

CC1(C(=O)OCCCF)ON=C(c2cc(-c3ncc(C(F)(F)F)cc3Cl)c(F)cc2Cl)O1 (stereo not drawn) [Compound 103]
10: activity level (fresh weight growth control rate), Digitaria sanguinalis (Digitaria sanguinalis) | activity level (fresh weight growth control rate), Echinochloa crus-galli (Echinochloa crus-galli) | activity level (fresh weight growth control rate), Veronica polita (Veronica polita) | activity level (fresh weight growth control rate), Amaranthus retroflexus (Amaranthus retroflexus) | activity level (fresh weight growth control rate), Abutilon theophrasti (Abutilon theophrasti) | activity level (fresh weight growth control rate), Setaria viridis (Setaria viridis)

C=CCCCOC(=O)C1(C)ON=C(c2cc(-c3ncc(C(F)(F)F)cc3Cl)c(F)cc2Cl)O1 (stereo not drawn) [Compound 106]
10: activity level (fresh weight growth control rate), Digitaria sanguinalis (Digitaria sanguinalis) | activity level (fresh weight growth control rate), Echinochloa crus-galli (Echinochloa crus-galli) | activity level (fresh weight growth control rate), Veronica polita (Veronica polita) | activity level (fresh weight growth control rate), Amaranthus retroflexus (Amaranthus retroflexus) | activity level (fresh weight growth control rate), Abutilon theophrasti (Abutilon theophrasti) | activity level (fresh weight growth control rate), Setaria viridis (Setaria viridis)

COCOC(=O)C1(C)ON=C(c2cc(-c3ncc(C(F)(F)F)cc3Cl)c(F)cc2Cl)O1 (stereo not drawn) [Compound 108]
10: activity level (fresh weight growth control rate), Digitaria sanguinalis (Digitaria sanguinalis) | activity level (fresh weight growth control rate), Echinochloa crus-galli (Echinochloa crus-galli) | activity level (fresh weight growth control rate), Veronica polita (Veronica polita) | activity level (fresh weight growth control rate), Amaranthus retroflexus (Amaranthus retroflexus) | activity level (fresh weight growth control rate), Abutilon theophrasti (Abutilon theophrasti) | activity level (fresh weight growth control rate), Setaria viridis (Setaria viridis)

CSCOC(=O)C1(C)ON=C(c2cc(-c3ncc(C(F)(F)F)cc3Cl)c(F)cc2Cl)O1 (stereo not drawn) [Compound 109]
10: activity level (fresh weight growth control rate), Digitaria sanguinalis (Digitaria sanguinalis) | activity level (fresh weight growth control rate), Echinochloa crus-galli (Echinochloa crus-galli) | activity level (fresh weight growth control rate), Veronica polita (Veronica polita) | activity level (fresh weight growth control rate), Amaranthus retroflexus (Amaranthus retroflexus) | activity level (fresh weight growth control rate), Abutilon theophrasti (Abutilon theophrasti) | activity level (fresh weight growth control rate), Setaria viridis (Setaria viridis)

COCCOC(=O)C1(C)ON=C(c2cc(-c3ncc(C(F)(F)F)cc3Cl)c(F)cc2Cl)O1 (stereo not drawn) [Compound 110]
10: activity level (fresh weight growth control rate), Digitaria sanguinalis (Digitaria sanguinalis) | activity level (fresh weight growth control rate), Echinochloa crus-galli (Echinochloa crus-galli) | activity level (fresh weight growth control rate), Veronica polita (Veronica polita) | activity level (fresh weight growth control rate), Amaranthus retroflexus (Amaranthus retroflexus) | activity level (fresh weight growth control rate), Abutilon theophrasti (Abutilon theophrasti) | activity level (fresh weight growth control rate), Setaria viridis (Setaria viridis)

COCCOC(=O)C1(C)ON=C(c2cc(-c3ncc(Cl)cc3Cl)c(F)cc2Cl)O1 (stereo not drawn) [Compound 111]
10: activity level (fresh weight growth control rate), Digitaria sanguinalis (Digitaria sanguinalis) | activity level (fresh weight growth control rate), Echinochloa crus-galli (Echinochloa crus-galli) | activity level (fresh weight growth control rate), Veronica polita (Veronica polita) | activity level (fresh weight growth control rate), Amaranthus retroflexus (Amaranthus retroflexus) | activity level (fresh weight growth control rate), Abutilon theophrasti (Abutilon theophrasti) | activity level (fresh weight growth control rate), Setaria viridis (Setaria viridis)

COCCOC(=O)C1ON=C(c2cc(-c3ncc(C(F)(F)F)cc3Cl)c(F)cc2Cl)O1 (stereo not drawn) [Compound 112]
10: activity level (fresh weight growth control rate), Digitaria sanguinalis (Digitaria sanguinalis) | activity level (fresh weight growth control rate), Echinochloa crus-galli (Echinochloa crus-galli) | activity level (fresh weight growth control rate), Veronica polita (Veronica polita) | activity level (fresh weight growth control rate), Amaranthus retroflexus (Amaranthus retroflexus) | activity level (fresh weight growth control rate), Abutilon theophrasti (Abutilon theophrasti) | activity level (fresh weight growth control rate), Setaria viridis (Setaria viridis)

COCCCOC(=O)C1(C)ON=C(c2cc(-c3ncc(C(F)(F)F)cc3Cl)c(F)cc2Cl)O1 (stereo not drawn) [Compound 114]
10: activity level (fresh weight growth control rate), Digitaria sanguinalis (Digitaria sanguinalis) | activity level (fresh weight growth control rate), Echinochloa crus-galli (Echinochloa crus-galli) | activity level (fresh weight growth control rate), Veronica polita (Veronica polita) | activity level (fresh weight growth control rate), Amaranthus retroflexus (Amaranthus retroflexus) | activity level (fresh weight growth control rate), Abutilon theophrasti (Abutilon theophrasti) | activity level (fresh weight growth control rate), Setaria viridis (Setaria viridis)

COCCCOC(=O)C1ON=C(c2cc(-c3ncc(C(F)(F)F)cc3Cl)c(F)cc2Cl)O1 (stereo not drawn) [Compound 115]
10: activity level (fresh weight growth control rate), Digitaria sanguinalis (Digitaria sanguinalis) | activity level (fresh weight growth control rate), Echinochloa crus-galli (Echinochloa crus-galli) | activity level (fresh weight growth control rate), Veronica polita (Veronica polita) | activity level (fresh weight growth control rate), Amaranthus retroflexus (Amaranthus retroflexus) | activity level (fresh weight growth control rate), Abutilon theophrasti (Abutilon theophrasti) | activity level (fresh weight growth control rate), Setaria viridis (Setaria viridis)

CC(C#N)OC(=O)C1(C)ON=C(c2cc(-c3ncc(C(F)(F)F)cc3Cl)c(F)cc2Cl)O1 (stereo not drawn) [Compound 116]
10: activity level (fresh weight growth control rate), Digitaria sanguinalis (Digitaria sanguinalis) | activity level (fresh weight growth control rate), Echinochloa crus-galli (Echinochloa crus-galli) | activity level (fresh weight growth control rate), Veronica polita (Veronica polita) | activity level (fresh weight growth control rate), Amaranthus retroflexus (Amaranthus retroflexus) | activity level (fresh weight growth control rate), Abutilon theophrasti (Abutilon theophrasti) | activity level (fresh weight growth control rate), Setaria viridis (Setaria viridis)

CC1(C(=O)OCC2CC2)ON=C(c2cc(-c3ncc(C(F)(F)F)cc3Cl)c(F)cc2Cl)O1 (stereo not drawn) [Compound 126]
10: activity level (fresh weight growth control rate), Digitaria sanguinalis (Digitaria sanguinalis) | activity level (fresh weight growth control rate), Echinochloa crus-galli (Echinochloa crus-galli) | activity level (fresh weight growth control rate), Veronica polita (Veronica polita) | activity level (fresh weight growth control rate), Amaranthus retroflexus (Amaranthus retroflexus) | activity level (fresh weight growth control rate), Abutilon theophrasti (Abutilon theophrasti) | activity level (fresh weight growth control rate), Setaria viridis (Setaria viridis)

CC1(C(=O)OC2CCCC2)ON=C(c2cc(-c3ncc(C(F)(F)F)cc3Cl)c(F)cc2Cl)O1 (stereo not drawn) [Compound 127]
10: activity level (fresh weight growth control rate), Digitaria sanguinalis (Digitaria sanguinalis) | activity level (fresh weight growth control rate), Echinochloa crus-galli (Echinochloa crus-galli) | activity level (fresh weight growth control rate), Veronica polita (Veronica polita) | activity level (fresh weight growth control rate), Amaranthus retroflexus (Amaranthus retroflexus) | activity level (fresh weight growth control rate), Abutilon theophrasti (Abutilon theophrasti) | activity level (fresh weight growth control rate), Setaria viridis (Setaria viridis)
